From patent US9655822B2, “Hydrated lamellar phases or liposomes which contain a fatty monoamine or a cationic polymer which promotes intracellular penetration, and a cosmetic or pharmaceutical composition containing same, as well as a method of screening such a substance” (BASF Beauty Care Solutions France S.A.S., priority 2004, dated 2017) come the findings set out here.

Data set [1] has as its system normal human fibroblasts. In words: Screening of molecules which stimulate the intracellular penetration of PFB-F incorporated in a liposome. The data set is classed as cell-based. The procedure:
These molecules are retained in priority. The preparation of the liposomes with primary fatty monoamines of alkyl chain length of between 3 and 18 carbons and the quantification of the intracellular penetration of the fluorescent label are carried out as described in the preceding Example. […] We have thus studied the intracellular penetration of the PFB-F encapsulated in liposomes in the presence of primary fatty monoamines on the one hand, and with secondary fatty monoamines on the other hand. The preparation of the liposomes with primary or secondary fatty amines and the quantification of the intracellular penetration of the fluorescent markers are carried out as described in Example 8.

Data set [2] relates to normal human fibroblasts. In words: Cell viability in the screening of functionalising molecules. As to conditions: 1% of molecule (25 kDa PEI: 50 μM), 96-well plate. The procedure: 250 μl of liposomal suspension is added onto cultures of normal human fibroblasts extracted from abdominal plasy and cultivated in a 96-well plate. Each concentration is tested on 6 different wells. The cell viability is evaluated by a test with paranitrophenylphosphate which determines the intracellular alkaline phosphatase activity after three rinses with pH 7.4 phosphate buffer. The percentage of living cells is calculated with respect to a control made without the addition of liposome in the culture well (n=6).
55 molecules are firstly tested in triplicate, in comparison with the 50 μM 25 kDa PEI. The intracellular penetration is quantified after 24 hours of incubation on normal human fibroblasts cultivated in 24-well plates as described in Example 2. The cell viability is estimated in a 96-well plate with 200 μl of liposomal suspension.
The intracellular penetration and the cytotoxicity are evaluated as described in Example 2.

A short description of data set [3]: Transcutaneous permeation on human skin. As to conditions: 0.5% vitamin E in liposomes with 2% quaternised soya solution vs free or liposome without quaternised agent; HPLC, 5 to 24 hours.
Protocol: The diffusion kinetics were quantified by spectrofluorimetry from 3 to 24 hours. The release was quantified after 24 additional hours. The storage was also evaluated last. The number of samples tested is 5 per condition.
The diffusion kinetics were quantified by high performance liquid chromatography from 5 to 24 hours. The release was quantified after 24 additional hours. The storage was also evaluate last.
For data set [4], the target named is T1, tyrosinase (Homo sapiens, UniProt P14679).
T1 construct: on normal human melanocytes cultivated in 24-well plates and pre-confluent; endogenous in cells; host or cells: normal human melanocytes
T1 sequence (P14679 19-529): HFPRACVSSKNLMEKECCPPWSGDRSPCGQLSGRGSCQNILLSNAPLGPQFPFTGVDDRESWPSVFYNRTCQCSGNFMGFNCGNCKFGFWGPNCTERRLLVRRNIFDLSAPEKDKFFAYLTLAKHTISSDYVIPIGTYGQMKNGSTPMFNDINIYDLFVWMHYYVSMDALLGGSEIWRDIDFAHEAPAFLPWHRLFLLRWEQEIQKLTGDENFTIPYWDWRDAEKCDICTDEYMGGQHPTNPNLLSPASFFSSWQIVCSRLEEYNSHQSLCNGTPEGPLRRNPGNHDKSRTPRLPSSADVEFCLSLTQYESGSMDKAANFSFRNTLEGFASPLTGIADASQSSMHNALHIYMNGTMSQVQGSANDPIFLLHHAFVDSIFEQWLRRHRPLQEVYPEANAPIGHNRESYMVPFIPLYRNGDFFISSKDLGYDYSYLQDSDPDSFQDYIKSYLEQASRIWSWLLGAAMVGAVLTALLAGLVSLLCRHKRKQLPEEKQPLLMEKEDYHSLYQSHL
Briefly: Tyrosinase activity in melanocytes (L-DOPA/MBTH). It counts as cell-based. The following applies: 66 hours; for Depigmenting effect: rate of enzymatic reaction (tyrosinase activity), Free: active applied free, normal human melanocytes; for Depigmenting effect: rate of enzymatic reaction (tyrosinase activity), PEI Liposome: active in 10 μM PEI functionalised liposome; for Depigmenting effect: rate of enzymatic reaction (tyrosinase activity), Soya liposome: active in 2% quaternised soya liposome; for Depigmenting effect: rate of enzymatic reaction (tyrosinase activity), Lipsosome: active in 5% lecithin liposome. Further details: unit not given here. The procedure: Actives are also co-encapsulated: Phytolight® (Coletica, Lyons, France) without 0.05% preservative (cocktail of plant actives), 0.05% arbutine and 1 mM catechin (Sigma). […] The actives which are liposomed or not are incubated for 66 hours at 37° C. under 5% CO2 in MMK2 medium (Sigma). […] The formation of a MBTH-o-quinone compound is characterised by an absorbance value at 490 nm quantified kinetically. The tyrosinase activity is expressed by the slope (rate) of the enzymatic reaction.

The mark [5] stands for this setting: 1% of molecule (25 kDa PEI: 50 μM), 5% soya lecithin, 0.01% PFB-F, 24 hours.

As for “Stearamidopropyl cetearyl dimonium tosylate and PG”, the Stimulation factor in data set [1] (setting [5]) stood at 13.1. In data set [2], this compound registered a Viability of 93.2%.
With `C[N+](C)(CCO)CCCNC(=O)[C@H](O)[C@@H](O)[C@H](O)[C@H](O)CO.[Cl-]` [Quaternium 22], the Stimulation factor in data set [1] (setting [5]) was found to be 2. In data set [2], this compound showed a Viability of 98.9%.
Taken in the same sequence, the figures for Quaternium 26 were 30.9 and 59.2%.
Consider Quaternium 70 and PG, for which, in data set [1] (setting [5]), the Stimulation factor was −0.2. The Viability in data set [2] is reported as 63.9%.
In the case of vitamin E, the “diffusion, release and storage (in words)” value in data set [3] is “significantly stimulates the diffusion, the release and the storage”.
For `CCCCN` [n-Butylamine C4, n-Butylamine], the Stimulation factor in data set [1] (setting [5]) is 1.4; in data set [1] (by number of alkyl chains of the amine (chain length), as in Example 8), 1.7; in data set [1] (primary monoamine with a single alkyl fatty chain, by number of carbons, as in Example 8) it was 1.4.
Take Catechin: in data set [4], the “Depigmenting effect: rate of enzymatic reaction (tyrosinase activity), Free” value was found to be 0.007; the “Depigmenting effect: rate of enzymatic reaction (tyrosinase activity), PEI Liposome” value is on record as 0; the “Depigmenting effect: rate of enzymatic reaction (tyrosinase activity), Soya liposome” value worked out at 0.003; the “Depigmenting effect: rate of enzymatic reaction (tyrosinase activity), Lipsosome” value is reported as 0.007.
`OC[C@H]1O[C@@H](Oc2ccc(O)cc2)[C@H](O)[C@@H](O)[C@@H]1O` [Arbutin]: in data set [4], the “Depigmenting effect: rate of enzymatic reaction (tyrosinase activity), Free” value was determined as 0.004; the “Depigmenting effect: rate of enzymatic reaction (tyrosinase activity), PEI Liposome” value was 0; the “Depigmenting effect: rate of enzymatic reaction (tyrosinase activity), Soya liposome” value was determined as 0; the “Depigmenting effect: rate of enzymatic reaction (tyrosinase activity), Lipsosome” value worked out at 0.001.
